Where two headings read alike, the source gives them in different places. Square brackets hold non-standard residues; d marks the D form. Peptide text beside a SMILES is read from it.
Legend:
[1] = 1:2 dilution of NHS, 37° C., 24 h
Protocol: Lane 1 contains peptide alone/time=0; lane 2, peptide at 37° C./time=24 h; lane 3, peptide in a 1:2 dilution of NHS/time=0; lane 4, peptide in a 1:2 dilution of NHS @ 37° C./time=24 h; and lane 5, a 1:2 dilution of NHS with no peptide at 37° C./time=24 h.

trypsin = conditions: peptide incubated in trypsin at 37° C. before adding STI
Protocol: The image documents 10-20% gradient gels run electrophoretically (e-gel), labeled with Imperial Protein Stain, and photographed. An e-gel was performed for each peptide, stained with Imperial stain, and photographed. The arrow markers show both the identity of the peptide run and its final location after migration. For each peptide assessment, lanes 1 contain peptide alone; lanes 2, peptide plus soybean trypsin inhibitor (STI); and lanes 3, peptide incubated in trypsin at 37° C. before adding STI.

in vitro = conditions: rhesus monkey, LLC-MK2 cells (confluent monolayers)
Protocol: Possible direct cytotoxicity caused by peptide exposure to proliferating LLC-MK2 monolayers was measured using the TACS™ MTT cell proliferation assay (R&D Systems, Inc., Minneapolis, Minn.) according to the manufacturer's instructions. The MTT assay detects and measures mitochondrial reductase activity observable in viable cells. […] A Tecan GeniosPro plate reader (Tecan US, Durham, N.C.) was used to measure absorbance at 560 nm.
Error bars show ±standard deviations (±sd) of the means with an asterisk indicating instances of statistically-significant differences from control according to Dunnett's post hoc test (p<0.05).

Protocol for DENV1: (§1) Twenty-four hours prior to infection, LLC-MK2 target cells were seeded at a density of 1.0×10^5 cells per well of an E-well plate. Approximately 200 FFU of virus were incubated with or without peptides in serum-free DMEM for 1 h at 20° C. Virus/peptide or virus/control mixtures were allowed to infect confluent target cell monolayers for 1 h at 37° C., rocking every 15 min, after which time the medium was aspirated and monolayers overlaid with fresh DMEM plus v/v 10% FBS containing v/v 0.85% Sea-Plaque Agarose (Cambrex Bio Science, Rockland, Me.). To allow proper setting, monolayers with agar overlays were incubated 20 min at 4° C. Next, infected cells were incubated at 37° C. with 5% CO2 for three days (DENV1, -3, and -4) or five days (DENV2). Then, infected cultures were fixed with 10% formalin overnight at 4° C., permeabilized with v/v 70% ethanol for 20 min, and rinsed with phosphate-buffered saline, pH 7.4 (PBS) prior to immunostaining. Viral foci were detected and enumerated using supernatant from mouse anti-DENV hybridoma E60 (obtained from the Department of Pathology & Immunology, Washington University, St. Louis, Mo.) followed by horseradish peroxidase-conjugated goat anti-mouse immunoglobulin (Pierce, Rockford, Ill.) and developed using AEC chromogen substrate (Dako, Carpinteria, Calif.). Results have been expressed as an average of two independent trials (at least) with three replicates each.
Protocol for DENV2: as §1
Protocol for DENV3: as §1
Protocol for DENV4: as §1

## CSCC[C@@H](NC(=O)[C@H](NC(=O)[C@@H](Cc1c[nH]c2ccccc12)NC(=O)[C@@H](CCCNC(=N)N)NC(=O)[C@@H](Cc1c[nH]cn1)NC(=O)[C@@H](Cc1c[nH]c2ccccc12)NC(=O)[C@@H](Cc1ccccc1)NC(=O)[C@@H](Cc1c[nH]cn1)NC(=O)[C@@H](CCCNC(=N)N)NC(=O)[C@@H](CC(C)C)NC(=O)[C@@H](CCCNC(=N)N)NC(=O)[C@@H](CC(C)C)NC(=O)[C@H]1CCCN1C(=O)[C@@H](Cc1ccc(O)cc1)NC(=O)[C@@H](CC(N)=O)NC(=O)[C@H]1CCCN1C(=O)CNC(=O)[C@@H](CCCCN)NC(=O)[C@@H](CC(N)=O)NC(=O)[C@@H](CCCCN)NC(=O)[C@@H](CCC(N)=O)NC(=O)[C@@H](CC(N)=O)NC(=O)[C@@H](CCC(N)=O)NC(=O)[C@@H](CCC(N)=O)NC(=O)[C@@H](Cc1c[nH]c2ccccc12)NC(=O)[C@H]1CCCN1)C(C)C)C(=O)N[C@H](Cc1c[nH]c2ccccc12)C(=O)N[C@H](CCCNC(=N)N)C(=O)O [RI57] (H-[dP][dW][dQ][dQ][dN][dQ][dK][dN][dK]G[dP][dN][dY][dP][dL][dR][dL][dR][dH][dF][dW][dH][dR][dW][dV][dM][dW][dR]-OH; N-terminus and C-terminus assumed)
[1]
  degradation in normal human serum (e-gel): remains completely intact
trypsin
  trypsin cleavage (e-gel): resistant to trypsin cleavage
DENV2; 0.1 uM peptide
  % Inhibition DENV2: 6.2%
DENV2; 0.5 uM peptide
  % Inhibition DENV2: −1.7%
DENV2; 1.0 uM peptide
  % Inhibition DENV2: −5.9%
DENV2; 5.0 uM peptide
  % Inhibition DENV2: 4.3%
DENV2; 10.0 uM peptide
  % Inhibition DENV2: 69.8%
DENV2; 20.0 uM peptide
  % Inhibition DENV2: 97.8%
DENV2; DENV2, sigmoidal curve-fitting to dose-response curve
  IC50: 7.4 µM
DENV1; 0.1 uM peptide
  % Inhibition DENV1: 2.4%
DENV1; 0.5 uM peptide
  % Inhibition DENV1: 16.2%
DENV1; 1.0 uM peptide
  % Inhibition DENV1: −43.6%
DENV1; 5.0 uM peptide
  % Inhibition DENV1: 63.8%
DENV1; 10.0 uM peptide
  % Inhibition DENV1: 97.3%
DENV1; 20.0 uM peptide
  % Inhibition DENV1: 100.0%
DENV1; DENV1, sigmoidal curve-fitting to dose-response curve
  IC50: 4.6 µM
DENV3; 0.1 uM peptide
  % Inhibition DENV3: 15.1%
DENV3; 0.5 uM peptide
  % Inhibition DENV3: 3.3%
DENV3; 1.0 uM peptide
  % Inhibition DENV3: −73.1%
DENV3; 5.0 uM peptide
  % Inhibition DENV3: −9.7%
DENV3; 10.0 uM peptide
  % Inhibition DENV3: 63.3%
DENV3; 20.0 uM peptide
  % Inhibition DENV3: 90.1%
DENV3; DENV3, sigmoidal curve-fitting to dose-response curve
  IC50: 5.9 µM
In vitro
  viability at 24 h, 0.1 µM: 95.9%
  viability at 24 h, 0.5 µM: 96.5%
  viability at 24 h, 1 µM: 95%
  viability at 24 h, 5 µM: 95.9%
  viability at 24 h, 10 µM: 95.3%
  viability at 24 h, 15 µM: 100%
  viability at 24 h, 20 µM: 101%
  viability at 24 h, 25 µM: 101%
  viability at 24 h, 30 µM: 104%
  viability at 24 h, 35 µM: 94.3%
  viability at 24 h, 40 µM: 92%
DENV4; 0.1 uM peptide
  % Inhibition DENV4: 18.9%
DENV4; 0.5 uM peptide
  % Inhibition DENV4: −0.7%
DENV4; 1.0 uM peptide
  % Inhibition DENV4: −11.8%
DENV4; 5.0 uM peptide
  % Inhibition DENV4: −41.8%
DENV4; 10.0 uM peptide
  % Inhibition DENV4: 55.5%
DENV4; 20.0 uM peptide
  % Inhibition DENV4: 94.4%

Source: US10639380B2, “Flavivirus-binding, entry-obstructing, protease-resistant peptide (RI57)” (priority 2016, dated 2020)
